≈ marks a conversion by molar mass, not a printed value.
Columns and labels:
[1] = system: A/New Caledonia/20/99 BVLV008 (H1N1); assay: Plaque reduction assay (PRA) in MDCK cells; type: cell-based, influenza virus; conditions: Influenza A virus, H1N1, MDCK, plaque numbers reduced by 50%, read-out: EC50 ng/ml PRA A/New
[2] = system: A/Panama/2007/99 BVLV008 (H3N2); assay: Plaque reduction assay (PRA) in MDCK cells; type: cell-based, influenza virus; conditions: Influenza A virus, H3N2, MDCK, plaque numbers reduced by 50%, read-out: EC50 ng/ml PRA A/Pan
B/Hong Kong/5/72 BVLV012 = assay: Plaque reduction assay (PRA) in MDCK cells; type: cell-based, influenza virus; conditions: MDCK, read-out: EC50 ng/ml PRA B/HongK
[3] = system: B/Yamanashi/166/98 BVLV007; assay: Plaque reduction assay (PRA) in MDCK cells; type: cell-based, influenza virus; conditions: unidentified influenza virus, MDCK, read-out: EC50 ng/ml PRA B/Yam, B/Yamanashi/166/98 BVLV007; plaque numbers reduced by 50%
[4] = system: A/Victoria/3/75 BVLV017 (H3N2); assay: Plaque reduction assay (PRA) in MDCK cells; type: cell-based, influenza virus; conditions: Influenza A virus, H3N2, MDCK, plaque numbers reduced by 50%, read-out: EC50 ng/ml PRA A/Vic
[5] = system: Staphylococcus aureus ATCC 29213; assay: Kirby-Bauer disk test, zones of inhibition; type: cell-based; conditions: 30 μg/disk; for zone of inhibition at 30 µg/disc: Staphylococcus aureus, ATCC29213, read-out: diameter of zone of inhibition, Staphylococcus aureus ATCC 29213
Procedure: (§1) Antibiotic activities were determined using a standard Kirby-Bauer* test and are reported as diameters (in mm) of zones of inhibition for test strains. All compounds were spotted at 30 μg/disk.

[6] = system: Escherichia coli ATTCC 25922; assay: Kirby-Bauer disk test, zones of inhibition; type: cell-based; conditions: 30 μg/disk; for zone of inhibition at 30 µg/disc: Escherichia coli, ATTCC25922, read-out: diameter of zone of inhibition, Escherichia coli ATTCC 25922
Procedure: as §1

[7] = system: Pseudomonas aeuruginosa ATCC 27853; assay: Kirby-Bauer disk test, zones of inhibition; type: cell-based; conditions: 30 μg/disk; for zone of inhibition at 30 µg/disc: Pseudomonas, ATCC27853, read-out: diameter of zone of inhibition, Pseudomonas aeuruginosa ATCC 27853
Procedure: as §1

[8] = system: Enterococcus faecalis ATCC 29212; assay: Kirby-Bauer disk test, zones of inhibition; type: cell-based; conditions: 30 μg/disk; for zone of inhibition at 30 µg/disc: Enterococcus faecalis, ATCC29212, read-out: diameter of zone of inhibition, Enterococcus faecalis ATCC 29212
Procedure: as §1

[9] = in vivo
Procedure: Rodents were anaesthetised with Ketamine/Domitor mixture according to standard procedures and dosed with compound of interest by the intra-nasal route at a dose volume of approximately 3.0 ml/kg. The rodent is held in the vertical position during dosing of 30 μL per nostril. At different time points, for example, 2, 8, 24, 48 and 168 hours post-dose, levels of compound in the lung tissue are assessed by analytical methods. Any analytical method suitable for detection of this type of compound may be used. The time at which levels of compound fall below the sensitivity of the analytical techniques identified will determine the residency time of the compound in lung tissue.

Row | Compound | zone of inhibition at 30 µg/disc [5] | zone of inhibition at 30 µg/disc [6] | zone of inhibition at 30 µg/disc [7] | zone of inhibition at 30 µg/disc [8] | also measured
1 | NC12CC3CC(CC(C3)C1)C2 [Amantadine] |  |  |  |  | EC50 [1]: 11 ng/mL (≈ 0.0727 µM); EC50 [2]: 157 ng/mL (≈ 1.04 µM); EC50 (B/Hong Kong/5/72 BVLV012): > 10000 ng/mL; EC50 [3]: 2060 ng/mL (≈ 13.6 µM); EC50 [4]: 220 ng/mL (≈ 1.45 µM)
2 | NCC[C@H](O)C(=O)N[C@@H]1C[C@H](N)[C@@H](O[C@H]2O[C@H](CN)[C@@H](O)[C@H](O)[C@H]2O)[C@H](O)[C@H]1O[C@H]1O[C@H](CO)[C@@H](O)[C@H](N)[C@H]1O [Amikacin, reference compound] | 18.2 mm | 18.5 mm | 18.4 mm | 6.7 mm | 
3 | NCC1OC(OC2C(N)CC(N)C(OC3OC(COC(=O)NCCCCCCCCCCCCNC(=O)OCC4OC(OC5C(N)CC(N)C(OC6OC(CN)C(O)CC6N)C5O)C(O)C(N)C4O)C(O)C(N)C3O)C2O)C(N)CC1O (centres unmarked) [Compound 1] | 8.9 mm | 7 mm | 6.3 mm | 6 mm | 
4 | NCC1OC(OC2C(N)CC(N)C(OC3OC(CN)C(O)C(N)C3O)C2O)C(N)CC1O (centres unmarked) [Compound 2] | 18.2 mm | 6.3 mm | 12.8 mm | 6.3 mm | 
5 | NCC1OC(OC2C(N)CC(N)C(OC3OC(COC(=O)Nc4ccc(Cc5ccc(NC(=O)OCC6OC(OC7C(N)CC(N)C(OC8OC(CN)C(O)CC8N)C7O)C(O)C(N)C6O)cc5)cc4)C(O)C(N)C3O)C2O)C(N)CC1O (centres unmarked) [Compound 4] | 9.3 mm | 7.9 mm | 9.2 mm | 6 mm | 
6 | NCC1OC(OC2C(N)CC(N)C(OC3OC(CN4CCNCC4)C(O)C(N)C3O)C2O)C(N)CC1O (centres unmarked) [Compound 5] | 18.6 mm | 10.5 mm | 13.8 mm | 7.4 mm | nmole retained per gram of mouse lung after 7 days [9]: 0.8 nmole per gram
7 | NCC1OC(OC2C(N)CC(N)C(OC3OC(CN4CCN(C(=O)CCCCCCCCCCCCCC(=O)N5CCCN(CC6OC(OC7C(N)CC(N)C(OC8OC(CN)C(O)CC8N)C7O)C(O)C(N)C6O)C5)CC4)C(O)C(N)C3O)C2O)C(N)CC1O (centres unmarked) [Compound 7] |  | 6.5 mm | 8.9 mm | 6.2 mm | 
8 | NCC1OC(OC2C(N)CC(N)C(OC3OC(CN4CCN(C(=O)c5ccccc5-c5ccccc5C(=O)N5CCN(CC6OC(OC7C(N)CC(N)C(OC8OC(CN)C(O)CC8N)C7O)C(O)C(N)C6O)CC5)CC4)C(O)C(N)C3O)C2O)C(N)CC1O (centres unmarked) [Compound 8] |  | 11.4 mm | 12.1 mm | 6.2 mm | nmole retained per gram of mouse lung after 7 days [9]: 4.6 nmole per gram
9 | NCC1OC(OC2C(N)CC(N)C(OC3OC(CNC(=O)Nc4ccc(Cc5ccc(NC(=O)NCC6OC(OC7C(N)CC(N)C(OC8OC(CN)C(O)CC8N)C7O)C(O)C(N)C6O)cc5)cc4)C(O)C(N)C3O)C2O)C(N)CC1O (centres unmarked) [Compound 13] | 8.6 mm | 7.1 mm | 8.9 mm | 6.5 mm | 
10 | NCC1OC(OC2C(N)CC(N)C(OC3OC(CN4CCN(C(=O)Nc5ccc(Cc6ccc(NC(=O)N7CCN(CC8OC(OC9C(N)CC(N)C(OC%10OC(CN)C(O)CC%10N)C9O)C(O)C(N)C8O)CC7)cc6)cc5)CC4)C(O)C(N)C3O)C2O)C(N)CC1O (centres unmarked) [Compound 15] |  | 7.7 mm | 9 mm | 6.2 mm | 
11 | Cc1cc(C)c(NC(=O)N2CCN(CC3OC(OC4C(N)CC(N)C(OC5OC(CN)C(O)CC5N)C4O)C(O)C(N)C3O)CC2)c(C)c1NC(=O)N1CCN(CC2OC(OC3C(N)CC(N)C(OC4OC(CN)C(O)CC4N)C3O)C(O)C(N)C2O)CC1 (centres unmarked) [Compound 16] |  | 6.5 mm | 10.1 mm | 6.2 mm | nmole retained per gram of mouse lung after 7 days [9]: 2.8 nmole per gram
12 | NCC1OC(OC2C(N)CC(N)C(OC3OC(CN4CCN(Cc5cccc(CN6CCN(CC7OC(OC8C(N)CC(N)C(OC9OC(CN)C(O)CC9N)C8O)C(O)C(N)C7O)CC6)c5)CC4)C(O)C(N)C3O)C2O)C(N)CC1O (centres unmarked) [Compound 17] |  | 6.5 mm | 8.5 mm | 6.2 mm | 
13 | NC1CC(O)C(CNC(=O)NCCCCCCCCCCCCNC(=O)NCC2OC(OC3C(N)CC(N)C(OC4OC(CO)C(O)C(N)C4O)C3O)C(N)CC2O)OC1OC1C(N)CC(N)C(OC2OC(CO)C(O)C(N)C2O)C1O (centres unmarked) [Compound 18] |  | 7.6 mm | 10.4 mm | 6.2 mm | nmole retained per gram of mouse lung after 7 days [9]: 6.6 nmole per gram
14 | NCC1OC(OC2C(N)CC(N)C(OC3OC(CN4CCN(C(=O)Nc5ccc(NC(=O)N6CCN(CC7OC(OC8C(N)CC(N)C(OC9OC(CN)C(O)CC9N)C8O)C(O)C(N)C7O)CC6)cc5)CC4)C(O)C(N)C3O)C2O)C(N)CC1O (centres unmarked) [Compound 19] |  | 12.1 mm | 12.8 mm | 6.2 mm | 
15 | NCC1OC(OC2C(N)CC(N)C(OC3OC(CN4CCN(CCCCCCCCCCCCN5CCN(CC6OC(OC7C(N)CC(N)C(OC8OC(CN)C(O)CC8N)C7O)C(O)C(N)C6O)CC5)CC4)C(O)C(N)C3O)C2O)C(N)CC1O (centres unmarked) [Compound 20] |  | 7.8 mm | 7.5 mm | 6.2 mm | 
16 | NCC1OC(OC2C(N)CC(N)C(OC3OC(CNCCCCNC(=O)Nc4ccc(Cc5ccc(NC(=O)NCCCCNCC6OC(OC7C(N)CC(N)C(OC8OC(CN)C(O)CC8N)C7O)C(O)C(N)C6O)cc5)cc4)C(O)C(N)C3O)C2O)C(N)CC1O (centres unmarked) [Compound 22] |  |  | 6 mm |  | 
17 | NCC1OC(OC2C(N)CC(N)C(OC3OC(CN4CCN(C(=O)CCC(=O)N5CCN(CC6OC(OC7C(N)CC(N)C(OC8OC(CN)C(O)CC8N)C7O)C(O)C(N)C6O)CC5)CC4)C(O)C(N)C3O)C2O)C(N)CC1O (centres unmarked) [Compound 25] |  |  | 6 mm |  | 
18 | NC[C@H]1O[C@H](O[C@H]2[C@H](O)[C@@H](O[C@H]3O[C@H](CO)[C@@H](O)[C@H](N)[C@H]3O)[C@H](N)C[C@@H]2N)[C@H](O)[C@@H](O)[C@@H]1O [Kanamycin A, reference compound] |  |  |  |  | diameter of zone of inhibition, Staphylococcus aureus ATCC 29213 [5]: 19.1 mm; diameter of zone of inhibition, Escherichia coli ATTCC 25922 [6]: 18.2 mm; diameter of zone of inhibition, Pseudomonas aeuruginosa ATCC 27853 [7]: 6.2 mm; diameter of zone of inhibition, Enterococcus faecalis ATCC 29212 [8]: 6.7 mm
19 | CCOC(=O)C1=C[C@@H](OC(CC)CC)[C@H](NC(C)=O)[C@@H](N)C1 [Oseltamivir] |  |  |  |  | EC50 [1]: 0.23 ng/mL (≈ 0.000736 µM); EC50 [2]: 0.3 ng/mL (≈ 0.00096 µM); EC50 (B/Hong Kong/5/72 BVLV012): 32 ng/mL (≈ 0.102 µM); EC50 [3]: 0.7 ng/mL (≈ 0.00224 µM); EC50 [4]: 0.11 ng/mL (≈ 0.000352 µM)
20 | NC[C@H]1O[C@H](O[C@H]2[C@H](O)[C@@H](O[C@H]3O[C@H](CO)[C@@H](O)[C@H](N)[C@H]3O)[C@H](N)C[C@@H]2N)[C@H](N)C[C@@H]1O [Tobramycin, reference compound] | 26.7 mm | 18.4 mm | 24.9 mm | 15.7 mm | nmole retained per gram of mouse lung after 7 days [9]: 2.1 nmole per gram
21 | Neomycin [reference compound] |  |  |  |  | diameter of zone of inhibition, Staphylococcus aureus ATCC 29213 [5]: 16.8 mm; diameter of zone of inhibition, Escherichia coli ATTCC 25922 [6]: 14.4 mm; diameter of zone of inhibition, Pseudomonas aeuruginosa ATCC 27853 [7]: 7.1 mm; diameter of zone of inhibition, Enterococcus faecalis ATCC 29212 [8]: 6.7 mm

Reference: patent publication US20050085413A1, “Dimeric pharmaceutical compounds and their use” (priority 2001, published 2005)
